Results reported in patent US8158682B2, “Instillation administration of capsaicinoids for the treatment of pain” (Vallinex, Inc., priority 2008, dated 2012).
Where “and” joins values, the source holds several entries; their conditions need not be identical. Equal values may be shown once. Entries after “also recorded” stand apart in the source; their conditions may differ.

Experiments:
rat paw incision model [1] = experiment: Rat paw incision model, postsurgical thermal hyperalgesia (thermal paw withdrawal latency); format: in vivo; conditions: for ED10 / ED20 / ED50: analgesic intensity, thermal hyperalgesia; for ED50: 5 minute intraoperative instillation
Procedure: (§1) Male Sprague-Dawley rats (Chrales River Laboratories, Inc., Wilimington, Mass., 225-250 g) were anesthetized with 2% isoflurane delivered via nose cone. Ten to 15 minutes before surgery, 100 μL of 2% lidocane was injected in the plantar surface of the right hind paw. A 1 centimeter incision (number 15 scalpel blade) was make through the skin, muscle, and fascia of the anesthetized paw, starting 5 mm from the proximal edge of the heel and extending toward the toes. After elevating the incised tissue, 20 μL of capsaicin formulation or vehicle were instilled into the surgical incision, allowed to dwell for pre-specified times, and then removed via aspiration using a cotton swab. The incision was apposed with 4 single interrupted mattress sutures of 5-0 nylon thread.
(§2) Animals were tested on the day before surgery (baseline) and on days 1, 2, 3, and 6 after surgery. Thermal sensitivity was assessed by thermal paw withdrawal latency as described by Hargreaves et al. (Hargreaves et al., J. Pain 32:77-88 (1988)). Mechanical hyperalgesia was assessed by the “up-down” algorithm of Chaplan et al. (Chaplan et al., J. Neurosci. Methods 53:55-63 (1994)).
In this study, animals in the active treatment groups received an intraoperative instillation of capsaicin (5 μg per 20 μL 50% PEG-300) for the designated times. Animals in the control groups received 20 μL of 50% PEG-300 for 5 minutes (vehicle) or no intraoperative treatment (sham). Graph points represent mean values; error bars are ±SEM.
In the study, animals in the active treatment groups received 5 minute intraoperative instillations of capsaicin formulation (1.5 μg to 150 μg per 20 μL of 50% PEG-300). Animals in the control groups received 5 minute intraoperative instillations of 20 μL of 50% PEG-300 (vehicle) or 5 minute intraoperative instillations of 20 μL of 50% PEG-300 plus subcutaneous buprenorphine (50 μg/kg) 1 hour before behavioral testing (Bup). Bars represent mean values; error bars are ±SEM.
The experimental data from FIG. 2 were used to calculate analgesic intensity (AI) as follows: AI(%)=100×([PWLtreat−PWLbasal]/[cut-off−PWLbasal]), where PWLtreat was the paw withdrawal latency after capsaicin treatment, PWLbasal was the paw withdrawal latency on day 1 after vehicle treatment, and cut-of was 20 seconds. […] (CI=confidence interval)

rat paw incision model [2] = experiment: Rat paw incision model, postsurgical mechanical hyperalgesia (paw withdrawal threshold, up-down); format: in vivo
Procedure: as §1, §2
In this study, animals in the active treatment groups received an intraoperative instillation of capsaicin (5 μg per 20 μL 50% PEG-300) for the designated times. Animals in the control groups received 20 μL of 50% PEG-300 for 5 minutes (vehicle). Graph points represent mean values; error bars are ±SEM.
In this study, animals in the active treatment groups received 5 minute intraoperative instillations of capsaicin (5, 15, or 75 μg per 20 μL of 50% PEG-300). Animals in the control groups received 5 minute intraoperative instillations of 20 μL of 50% PEG-300 (vehicle) or subcutaneous injection of buprenorphine (50 μg/kg) 1 hour before behavioral testing (Bup). Bars represent mean values; error bars are ±SEM.
In this study, animals in the active treatment groups received 5 minute intraoperative instillations of capsaicin (5, 15, or 75 μg per 20 μL of 50% PEG-300). Animals in the control groups received 5 minute intraoperative instillations of 20 μL of 50% PEG-300 (vehicle). Graph points represent mean values; error bars are ±SEM.

sciatic nerve = experiment: Extrafascicular instillation on sciatic nerve: body weight, behavioral testing, nerve histology; format: in vivo, rat
Procedure: (§3) Adult CD Charles River rats were anesthetized with isoflurane and oxygen. Extrafascicular instillation: The sciatic nerve was exposed by blunt dissection and 100 μl of test article was applied directly to the sciatic nerve). Treatment groups received either vehicle (25% PEG 300), 0.0083 mg capsaicin (≧98% pure) or 0.025 mg capsaicin dissolved in vehicle. […] Osteotomy: The lateral aspect of the right femur was exposed and cut at the midshaft using an oscillating saw. An intramedullary Kirshner wire was inserted for fracture reduction and the osteotomy site irrigated with 100 μl of the vehicle (20% PEG 300, 10 mM histidine and 5% (w/v) sucrose) or 0.5 mg capsaicin diluted in vehicle.
Behavioral testing: Individual rats were placed in a black plexiglass observation box and parameters including posture, rearing, vocalization, bizarre behavior, mobility, and stereotypy were evaluated based on the methods of Moser et al. (Moser et al., Fundam. Appl. Toxicol. 11: 189-206 (1988)). Forelimb and hindlimb grip strength was measured using a strain gauge that recorded the maximum force in Kg as described by Meyer (Meyer et al. Neurobehav. Toxicol. 1:233-236 (1979) and Meyer and Ross (1966) U.S. Environmental Protection Agency, Wasington, D.C.) Hindlimb splay was quantitatively measured as described by Edwards et al. (Edwards et al., Toxicol Appl. Pharmacol. 40:589-591 (1977)). Thermal response was measured using the hot plate test as previously described by Ankier (Aniker Eur. J. Pharmacol. 27:1-4 (1974). The hot plate was set at 52° C. and the latency between placement of the animal on the heated surface and the first paw lick was recorded. The test was administered three times at predose and at days 3, 14 and 28 post-surgery and the values averaged.
(§4) Histology: Rats were euthanized by intraperitoneal injection of sodium pentobarbital (90 mg/Kg) followed by transcardiac perfusion with 0.9% saline then 3% paraformaldehyde and 3% glutaraldehyde in 0.1 M phosphate buffer. The entire length of sciatic nerve was embedded in paraffin or plastic and representative sections were taken from the treatment site and proximal and distal sites and stained with hematoxylin and eosin (H&E). Sections were scored for neuronal and myelin integrity, appearance and inflammation.
(§5) Statistics: Levene's test was used to assess homogeneity of group variances for each specified end point and for each data collection interval. If Levene's test was not significant (P>0.01), a pooled estimate of the variance (Means Square Error) was computed from a one-way analysis of variance (ANOVA) and utilized by Dunnett's comparison of each treatment group with the control group. If Levene's test was significant (P<0.01), comparisons with the control group were made using Welch's t-test with a Bonferroni correction.

osteotomy site = experiment: Femur osteotomy: histology and biomechanical testing (4-point bending); format: in vivo, rat
Procedure: as §3, §4
Biomechanical Testing: Both osteotomized and contralateral whole femurs were tested in 4-point bending with a servohydrolic material test system (858 Mini Bionix) to determine the material properties of the cortical bone. Peak load, energy to break (area under the curve) and stiffness were derived. Peak load was measured as the maximum height of the load-displacement curve, and stiffness was measured as the slope of the linear portion of the load-displacement curve.
as §5

[3] = cited from earlier work
[4] = intraoperative instillation, rat paw incision model
[5] = 0.5 mg, right femur, vs vehicle (FIG. 14)

Q: With `COc1cc(CNC(=O)CCCC/C=C/C(C)C)ccc1O` [capsaicin, N-(4-hydroxy-3-methoxybenzyl)-8-methylnon-trans-6-enamide] as the compound, how does the “dose dependence of reduction of postsurgical thermal hyperalgesia” value (rat paw incision model [1]; 1.5 μg to 150 μg per 20 μL 50% PEG-300, 5 minute instillation (FIG. 2)) read?
A: dose-dependant; also recorded: dose-dependent

Q: And the “postsurgical thermal hyperalgesia (PWL)” value (rat paw incision model [1]; 5 μg per 20 μL 50% PEG-300, instillation 5 or 10 minutes, post-surgical days 1, 2, 3, vs vehicle and sham (FIG. 1))?
A: significantly lower thermal hyperalgesia; also recorded: reduces postsurgical thermal hyperalgesia

Q: What about the ED10 (rat paw incision model [1]; day 1 after surgery) of the same compound?
A: 3.46 µg

Q: What about the ED20 (rat paw incision model [1]; day 1 after surgery) of the same compound?
A: 7.77 µg

Q: What about the ED50 (rat paw incision model [1]; day 1 after surgery) of the same compound?
A: 31.01 µg

Q: And the ED10 (rat paw incision model [1]; day 2 after surgery)?
A: 2.99 µg

Q: What about the ED20 (rat paw incision model [1]; day 2 after surgery) of the same compound?
A: 8.38 µg

Q: And the ED50 (rat paw incision model [1]; day 2 after surgery)?
A: 48.53 µg

Q: What about the ED10 (rat paw incision model [1]; day 3 after surgery) of the same compound?
A: 1.84 µg

Q: What about the ED20 (rat paw incision model [1]; day 3 after surgery) of the same compound?
A: 6.09 µg

Q: What about the ED50 (rat paw incision model [1]; day 3 after surgery) of the same compound?
A: 47.09 µg and 47.08 µg

Q: What about the “duration of sustained analgesia” value (rat paw incision model [1]; [4]) of the same compound?
A: up to 6 days

Q: And the “potency against thermal versus mechanical hyperalgesia” value (rat paw incision model [1]; [4])?
A: higher potency against postsurgical thermal hyperalgesia than mechanical hyperalgesia

Q: And the “postsurgical mechanical hyperalgesia (PWT)” value (rat paw incision model [2]; 5 μg per 20 μL 50% PEG-300, designated dwell times (FIG. 4))?
A: did not reduce postsurgical mechanical hyperalgesia; also recorded: does not reduce postsurgical mechanical hyperalgesia

Q: And the “postsurgical mechanical hyperalgesia (PWT)” value (rat paw incision model [2]; 75 μg, 5 minute instillation, vs vehicle (FIG. 5))?
A: produced significant analgesic effects relative to vehicle; also recorded: reduces postsurgical mechanical hyperalgesia

Q: And the “postsurgical mechanical hyperalgesia (PWT) over time” value (rat paw incision model [2]; 75 μg, 5 minute instillation, vs vehicle, days 1 and 3 (FIG. 6))?
A: greater after an instillation of 75 μg capsaicin formulation than vehicle; also recorded: reduces postsurgical mechanical hyperalgesia

Q: And the “dose dependence of reduction of postsurgical mechanical hyperalgesia” value (rat paw incision model [2]; 5, 15 or 75 μg per 20 μL 50% PEG-300, 5 minute instillation (FIG. 5))?
A: dose-dependant

Q: And the “sciatic nerve histology (H&E), appearance” value (sciatic nerve; 0.025 mg extrafascicular instillation, 3 days or 28 days post treatment, vs sham operated (FIG. 12))?
A: no difference in appearance

Q: What about the activity/arousal (sciatic nerve; extrafascicular instillation (FIG. 8)) of the same compound?
A: does not effect activity/arousal

Q: What about the hindpaw splay (sciatic nerve; extrafascicular instillation (FIG. 10)) of the same compound?
A: no effect on hindpaw splay

Q: What about the “thermal withdrawal (hot plate, 52° C.)” value (sciatic nerve; extrafascicular instillation (FIG. 11)) of the same compound?
A: no effect on thermal withdrawal

Q: What about the “adverse effects on structural integrity of exposed nerve” value (sciatic nerve; extrafascicular instillation, summary) of the same compound?
A: no observable adverse effects

Q: And the weight gain (sciatic nerve; extrafascicular instillation, first 10 post-operative days, vs sham-operated rats (FIG. 7))?
A: reduces weight gain

Q: And the hindpaw grip strength (sciatic nerve; extrafascicular instillation, post operative days 3 and 14 (FIG. 9))?
A: decreases hindpaw grip strength

Q: And the “osteotomy site histology (H&E)” value (osteotomy site; 0.5 mg vs vehicle (FIG. 13))?
A: show no differences

Q: What about the “general integrity of bone structure (AUC, energy to break)” value (osteotomy site; [5]) of the same compound?
A: no difference

Q: What about the peak load (osteotomy site; [5]) of the same compound?
A: no difference

Q: And the stiffness (osteotomy site; [5])?
A: no difference

Q: And the “adverse effects on wound and bone healing following osteotomy” value (osteotomy site; instillation, summary)?
A: no observable adverse effects

Q: And the “solubility in organic solvents” value ([3]; alcohol, ether, benzene and chloroform)?
A: freely soluble

Q: And the solubility in water ([3]; water)?
A: practically insoluble
